Converted amounts (≈) assume the structure as drawn. “And” between values parts separate entries of the source, which are not always exact repeats. Identical values can stand only once.
Key:
[1] = tested on: B. cinerea (isolated from grapes); assay: In vitro antifungal activity, broth microdilution (MIC100); format: cell-based, Botrytis cinerea; settings: B. cinerea
Procedure: (§1) Fungal growth was assessed at six concentrations (3.1–100 μg/mL), using enriched Czapek broth in the presence of triazole 1-8 (Fig. 2). Each treatment was carried out in triplicate. The Minimum Inhibitory Concentration (MIC100) was determined and was defined as the minimum concentration required to inhibit the complete fungal growth inhibition under the conditions of the assay. Triadimefon (TDM) and cyproconazole (CPZ) were used as positive control. In order to evaluate the efficacy of the new compounds to control fungi affecting vineyards, imperfect fungi isolated from infected grapes from the province of San Juan in Argentina were employed. Significant differences were determined by t-Student hypothesis test p, at 95% confidence. In general, moderate to good activity was observed compared to the reference compounds as well as some selectivity against microorganisms.
(§2) The imperfect fungi used for the assays included Botrytis cinerea isolated from grapevine samples, Aspergillus fumigatus (ATTC 26934), A. niger (ATCC 9029), A. ustus (PN-S4), A. japonicus (M15C), A. terreus (M16C) and Fusarium oxysporum (M15-Pa) isolated from soil samples from the province of San Juan, Argentina. The microorganisms were grown on Czapek-yeast extract agar (CYA) prepared with yeast extract, K2HPO4, saccharose, agar, distilled water and enriched with a solution of mineral salts (NaNO3, KCl, MgSO4.7H2O and FeSO4.7 H2O). Inocula were adjusted to 1–5 × 10^4 colony forming units (CFU/ mL).
(§3) The minimum inhibitory concentration (MIC) of each compound was evaluated using broth microdilution techniques in 96-well microtiter plates according to the guidelines of the National Committee for Clinical Laboratory Standards for filamentous fungi M 38 A. The starting inoculum was 1–5 × 10^4 CFU/mL in accordance with the Clinical and Laboratory Standards Institute (CLSI, formerly the National Committee for Clinical Laboratory Standards [NCCLS]) (M27-A3 document for yeasts, and M38-A2 document for filamentous fungi).
(§4) Microtiter plates were incubated at 30 °C for Aspergillus and Fusarium, and 22 °C for B. cinerea in a moist and dark chamber. MIC values were recorded after 48 h for Aspergillus and Fusarium spp., and after 72 h for B. cinerea, according to the fungal growth control. TDM and CPZ were used as positive controls (12.5–50 μg/mL). Stock solutions were two-fold diluted with RPMI from 1000 to 0.98 μg/mL (final volume equal to 100 μL), and a final DMSO concentration ≤ 1%. An inoculum suspension (100 μL) was added to each well with the exception of the sterility control. Endpoints were defined as the lowest compound concentration resulting in total growth inhibition (MIC100) compared to the growth in control wells. MICs values ≤ 50 μg/mL were considered of interest. The assay was carried out in triplicate.

[2] = tested on: Aspergillus fumigatus (ATTC 26934); assay: as above; format: cell-based; settings: A. fumigatus, 30 °C, 48 h, total growth inhibition
Procedure: as §1, §2, §3, §4

[3] = tested on: Fusarium oxysporum (M15-Pa); assay: as above; format: cell-based; settings: 30 °C, 48 h, total growth inhibition
Procedure: as §1, §2, §3, §4

[4] = tested on: A. japonicus (M15C); assay: as above; format: cell-based, Aspergillus japonicus; settings: 48 h; for Fungicidal activity MIC100, AJ: A. japonicus, 30 °C, total growth inhibition
Procedure: as §1, §2, §3, §4

[5] = tested on: A. niger (ATCC 9029); assay: as above; format: cell-based, Aspergillus niger; settings: 48 h, total growth inhibition; for Fungicidal activity MIC100, AN: 30 °C
Procedure: as §1, §2, §3, §4

[6] = tested on: A. terreus (M16C); assay: as above; format: cell-based, Aspergillus terreus; settings: 48 h; for Fungicidal activity MIC100, AT: A. terreus, 30 °C, total growth inhibition
Procedure: as §1, §2, §3, §4

[7] = tested on: A. ustus (PN-S4); assay: as above; format: cell-based, Aspergillus ustus; settings: 30 °C, 48 h, total growth inhibition
Procedure: as §1, §2, §3, §4

[8] = Cytotoxicity, neutral red uptake assay; format: cell-based, human; settings: human
Procedure: (§5) The cytotoxic effect of the compounds, expressed as cell viability, was assessed on a permanent fibroblast cell line derived from human lung (MRC-5) (ATCC CCL-171). MRC-5 fibroblasts were grown as monolayers in minimum essential Eagle medium (MEM) with Earle’s salts, 2 mM l-glutamine and 2.2 g/L sodium bicarbonate, supplemented with 10% heat inactivated fetal bovine serum (FBS), 100 IU/mL penicillin and 100 µg/mL streptomycin in a humidified incubator with 5% CO2 in the air at 37 °C. Cell passage was maintained between 10 and 16. The medium was changed every 2 days.
(§6) Confluent cultures of MRC-5 fibroblasts were treated with medium containing the compounds at concentrations ranging from 0 to 1000 µM. For comparison purposes, the commercial antifungals CPZ and TDM were used as references, the products were first dissolved in DMSO and then in MEM, supplemented with 2% FBS. The final content of DMSO in the test medium and controls was 1%. Cells were exposed for 24 h to the test medium with or without the compound (control). Each concentration was tested in quadruplicate together with the control, and repeated three times in separate experiments. At the end of the incubation, the neutral red uptake (NRU) assay was carried out. To calculate the IC50 values (concentration that produces a 50% inhibitory effect on the evaluated parameter), the results were transformed to percentage of controls and the IC50 values were graphically obtained from the dose–response curves.

[9] = tested on: B. cinerea; assay: In vivo antifungal activity on infected grapes under greenhouse conditions; design: species or system Botrytis cinerea on Vitis vinifera grapes; settings: 7 days; for Efficacy (preventive rate) against B. cinerea on grapes: 2.5 µg/mL; for Efficacy (control effectiveness) against B. cinerea on grapes: 12.5 μg/mL
Procedure: The potential usefulness of compound 4 against B. cinerea was assessed under greenhouse conditions using infected grapes (in vivo), at 7 days of exposure. The compound was evaluated at 2.5 μg/mL and 12.5 μg/mL, CPZ was used as positive control (at 12.5 μg/mL). […] The blank control (untreated grapes) was completely affected by B cinerea (100% incidence) (Fig. 4).
The in vivo activity was determined on the Vitis vinifera grapes inoculated with a Botrytis cinerea conidia suspension. Appropriate amounts of the tested compounds were dissolved in DMSO and then suspended in the distilled water (DMSO concentration < 2%).
Healthy grapes, previously washed with a diluted solution of sodium hypochlorite, were punctured with 100 ⎧L of a solution of compound 4 (concentration of 12.5 ⎧g/mL and 2.5 ⎧g/mL) and evaporated at room temperature (~ 25 °C) during 24 h to favour the penetration of the compound. The same procedure was carried out with CPZ and the control blank (< 2% DMSO solution). The grapes epidermis was punctured with a sterile inoculation needle (Ø, 4.5 mm), 200 µL of the pathogen was inoculated at a concentration of 5.10^4 UFC/mL. The fruits were incubated at 20 °C to favour fungal growth, and fungal growth was assessed 7 days later. CPZ was used as positive control under the same conditions. The control effectiveness of the target compound was calculated as (1 − c/d) × 100, where c is the diameter of the treatment and d is the diameter of the blank control (˂ 2% DMSO solution).

[10] = tested on: B. cinerea hyphae; assay: Effect on B. cinerea hyphal morphology (optical microscopy); format: cell-based, Botrytis cinerea; settings: 12.5 μg/mL
Procedure: Changes in the hyphae morphology of B. cinerea treated with compound 4 were observed using optical microscopy.
The same procedure was carried out with CPZ and blank control (< 2% DMSO solution).

[11] = tested on: human lung fibroblasts MRC-5; assay: Cytotoxicity, neutral red uptake assay; format: cell-based; settings: MRC-5 fibroblasts, 24 h exposure, neutral red uptake; ± SD; read-out: Cytotoxicity IC50
Procedure: as §5, §6

[12] = 22 °C, 72 h, total growth inhibition

Row | Compound | Fungicidal activity MIC100, BC [1, 12] [µg/mL] | MIC100 (complete growth inhibition) ([1]; Botrytis cinerea, 22 °C, 72 h, total growth inhibition, read-out: Fungicidal activity MIC100, BC) [µg/mL] | MIC ([1]; Botrytis cinerea, molar conversion of the µg/mL value, read-out: MIC100 against B. cinerea expressed) [µM] | Fungicidal activity MIC100, AF [2] | Minimum inhibitory concentration (MIC100) ([2]; Aspergillus fumigatus, read-out: Fungicidal activity MIC100, AF) [µg/mL] | MIC100 (minimum concentration for complete growth inhibition) ([3]; Fusarium oxysporum, F. oxysporum, read-out: Fungicidal activity MIC100, F) [µg/mL] | MIC ([4]; read-out: Fungicidal activity MIC100, AJ) [µg/mL] | Fungicidal activity MIC100, AJ [4] [µg/mL] | Fungicidal activity MIC100, AN [5] [µg/mL] | MIC100 (complete growth inhibition) ([5]; Aspergillus niger, ATCC9029, 30 °C, read-out: Fungicidal activity MIC100, AN) [µg/mL] | Fungicidal activity MIC100, AT [6] | MIC100 (complete growth inhibition) ([6]; Aspergillus terreus, read-out: Fungicidal activity MIC100, AT, A. terreus, 30 °C, total growth inhibition) [µg/mL] | Fungicidal activity MIC100, AU [7] [µg/mL] | MIC100 (complete growth inhibition) ([7]; Aspergillus ustus, read-out: Fungicidal activity MIC100, AU) [µg/mL] | IC50 at 24 h [8] [µM] | Efficacy (preventive rate) against B. cinerea on grapes [9] [%] | Efficacy (control effectiveness) against B. cinerea on grapes [9] [%] | Hyphal morphology of B. cinerea [10] | Fungicidal activity MIC100, F [3] [µg/mL] | IC50 [11] [µM]
1 | CC(C1CC1)C(O)(Cn1cncn1)c1ccc(-c2ccc(F)cc2)cc1 (stereo not shown) [Compound 4, 3-Cyclopropyl-2-(4’-fluorobiphenyl-4-yl)-1-(1H-1,2,4-triazol1-yl)butan-2-ol] | 12.5 ± 0.9 | 12.5 (≈ 35.6 µM) | 35.5 (≈ 12.5 µg/mL) | 12.5 ± 0.8 µg/mL | 12.5 (≈ 35.6 µM) | ≥ 100 | 15 (≈ 42.7 µM) | 15 ± 0.7 | 10 ± 0.5 | 10 (≈ 28.5 µM) | 10 ± 0.4 µg/mL | 10 (≈ 28.5 µM) | 14 ± 0.7 | 14 (≈ 39.8 µM) | 61.1 ± 3.7 | 50.6 | 100 | morphological alterations, including irregular hyphae, variable diameter and the presence of internal vacuoles | – | –
2 | 1-(4-chlorophenyl)-3-cyclopropyl-2-(1H-1,2,4-triazol-1-yl)butan-1-ol [CPZ, reference compound] | 12.5 ± 0.8 | – | – | 25 µg/mL and 25 ± 1.4 µg/mL | – | – | – | 25 ± 1.3 | 25 ± 1.5 | – | 15.0 µg/mL and 15 ± 0.9 µg/mL | – | 15 ± 0.7 | – | – | 38.3 | 75.3 | – | ≥ 100 | 267 ± 18.7
